Measured values from patent publication EP0081312A2, “Antibiotics, their preparation and use” (BEECHAM GROUP PLC, priority 1981, dated 1983).
Values after ≈ are worked out from the molar mass of the structure shown. Like-named read-outs stand apart in the source and are kept apart here.

What was measured:
Assay in all cases: MIC, concentration required to inhibit growth of bacteria
Format in all cases: cell-based
Proteus morganii 1580 = settings: Morganella morganii
Pseudomonas aeruginosa A = tested on: Pseudomonas aeruginosa A
Bacillus Subtilis A = tested on: Bacillus Subtilis A
Serratia marcescens US20 = tested on: Serratia marcescens US20
Proteus vulgaris WO91 = tested on: Proteus vulgaris WO91
[1] = tested on: Staphylococcus aureux Oxford
Shigella sonnei MB 11967 = settings: MB11967
Enterobacter cloacae N1 = tested on: Enterobacter cloacae N1
Citrobacter freundii Ei = tested on: Citrobacter freundii Ei
Streptococcus faecalis I = settings: Enterococcus faecalis
[2] = tested on: Streptococcus pneumoniae CN33
Klebsiella aerogenes A = tested on: Klebsiella aerogenes A
Escherichia coli ESS = tested on: Escherichia coli ESS
[3] = tested on: Staphylococcus aureus Russell
Proteus rettgeri WM16 = settings: Providencia rettgeri
Proteus mirabilis C977 = tested on: Proteus mirabilis C977
Escherichia coli 0111 = tested on: Escherichia coli 0111
[4] = tested on: Salmonella typhirmurium CT10
[5] = tested on: Staphylococcus aureus 1517
Escherichia coli JT39 = tested on: Escherichia coli JT39
[6] = tested on: Streptococcus pyogenes CN10
[7] = Proteus morganii 1580, read-out: MIC
[8] = Pseudomonas aeruginosa A, read-out: MIC
[9] = Bacillus Subtilis A, read-out: MIC
[10] = Staphylococcus aureux Oxford, read-out: MIC
[11] = Citrobacter freundii Ei, read-out: MIC
[12] = Streptococcus faecalis I, read-out: MIC
[13] = Klebsiella aerogenes A, read-out: MIC
[14] = Staphylococcus aureus Russell, read-out: MIC
[15] = Proteus rettgeri WM16, read-out: MIC

SMILES | MIC (Shigella sonnei MB 11967) | MIC (Escherichia coli ESS) | MIC (Escherichia coli 0111) | MIC [4] | MIC (Proteus morganii 1580; 1580) | MIC (Pseudomonas aeruginosa A; Pseudomonas aeruginosa) | MIC (Bacillus Subtilis A; Bacillus subtilis) | MIC (Serratia marcescens US20) | MIC (Proteus vulgaris WO91) | MIC ([1]; Staphylococcus) | MIC (Enterobacter cloacae N1) | MIC (Citrobacter freundii Ei; Citrobacter freundii) | MIC (Streptococcus faecalis I) | MIC (Klebsiella aerogenes A; Klebsiella aerogenes) | MIC ([3]; Staphylococcus aureus) | MIC (Proteus rettgeri WM16; WM16) | MIC (Proteus mirabilis C977) | MIC [5] | MIC (Escherichia coli JT39) | MIC [6] | other results
C[C@@H](O)[C@H]1C(=O)N2C(C(=O)O)=C(S/C=C\C(=O)NCc3ccccc3)C[C@H]12 [Example 4, Sodium (5R,6S)-3-[(Z)-2 benzylaminocarbonylethenylthio]-6-[(R)-1-hydroxyethyl]-7-oxo-1-azabicyclo[3.2.0]hept-2-ene-2-carboxylate.] | 0.4 µg/mL | ≤ 0.1 µg/mL | 0.2 µg/mL | 0.2 µg/mL |  |  |  |  |  |  |  |  |  |  |  |  |  |  |  |  | MIC (Proteus morganii 1580; [7]): 1.6 µg/mL; MIC (Pseudomonas aeruginosa A; [8]): 50 µg/mL; MIC (Bacillus Subtilis A; [9]): ≤ 0.1 µg/mL; MIC (Serratia marcescens US20; read-out: MIC): 0.8 µg/mL; MIC (Proteus vulgaris WO91; read-out: MIC): 0.4 µg/mL; MIC [1, 10]: ≤ 0.1 µg/mL; MIC (Enterobacter cloacae N1; read-out: MIC): 1.6 µg/mL; MIC (Citrobacter freundii Ei; [11]): 0.8 µg/mL; MIC (Streptococcus faecalis I; [12]): 0.4 µg/mL; MIC ([2]; read-out: MIC): ≤ 0.1 µg/mL; MIC (Klebsiella aerogenes A; [13]): ≤ 0.1 µg/mL; MIC [3, 14]: ≤ 0.1 µg/mL; MIC (Proteus rettgeri WM16; [15]): 3.1 µg/mL; MIC (Proteus mirabilis C977; read-out: MIC): 0.8 µg/mL; MIC ([5]; read-out: MIC): 6.2 µg/mL; MIC (Escherichia coli JT39; read-out: MIC): ≤ 0.1 µg/mL; MIC ([6]; read-out: MIC): ≤ 0.1 µg/mL
C[C@H](O)[C@@H]1C(=O)N2C(C(=O)O)=C(S/C=C\C(=O)N(C(=O)NC3CCCCC3)C3CCCCC3)C[C@H]12 [Example 1] | 25 µg/mL (≈ 49.4 µM) | 1.6 µg/mL (≈ 3.16 µM) | 25 µg/mL (≈ 49.4 µM) | 25 µg/mL (≈ 49.4 µM) |  |  |  |  |  |  |  |  |  |  |  |  |  |  |  |  | MIC (Proteus morganii 1580; [7]): 25 µg/mL (≈ 49.4 µM); MIC (Pseudomonas aeruginosa A; [8]): > 100 µg/mL; MIC (Bacillus Subtilis A; [9]): ≤ 0.1 µg/mL; MIC (Serratia marcescens US20; read-out: MIC): 25 µg/mL (≈ 49.4 µM); MIC (Proteus vulgaris WO91; read-out: MIC): 25 µg/mL (≈ 49.4 µM); MIC [1, 10]: 0.4 µg/mL (≈ 0.791 µM); MIC (Enterobacter cloacae N1; read-out: MIC): 50 µg/mL (≈ 98.9 µM); MIC (Citrobacter freundii Ei; [11]): 12.5 µg/mL (≈ 24.7 µM); MIC (Streptococcus faecalis I; [12]): 0.8 µg/mL (≈ 1.58 µM); MIC (Klebsiella aerogenes A; [13]): 25 µg/mL (≈ 49.4 µM); MIC [3, 14]: 0.8 µg/mL (≈ 1.58 µM); MIC (Proteus rettgeri WM16; [15]): 50 µg/mL (≈ 98.9 µM); MIC (Proteus mirabilis C977; read-out: MIC): 50 µg/mL (≈ 98.9 µM); MIC ([5]; read-out: MIC): 6.2 µg/mL (≈ 12.3 µM); MIC (Escherichia coli JT39; read-out: MIC): 50 µg/mL (≈ 98.9 µM)
C[C@H](O)[C@@H]1C(=O)N2C(C(=O)[O-])=C(S/C=C\C(=O)NCc3ccccc3)C[C@H]12.[Na+] [Example 2, Sodium (5R,6R)-3-[(Z)-2 benzylaminocarbonylethenylthio]-6-[(S)-1-hydroxyethyl]-7-oxo-1-azabicyclo[3.2.0]hept-2-ene-2-carboxylate] | ≤ 0.1 µg/mL | ≤ 0.1 µg/mL | 0.2 µg/mL | ≤ 0.1 µg/mL | 0.8 µg/mL | 25 µg/mL | ≤ 0.1 µg/mL | 0.4 µg/mL | 0.2 µg/mL | ≤ 0.1 µg/mL | 0.2 µg/mL | ≤ 0.1 µg/mL | 0.2 µg/mL | 0.2 µg/mL | ≤ 0.1 µg/mL | 0.4 µg/mL | ≤ 0.1 µg/mL | 1.6 µg/mL | 0.2 µg/mL | ≤ 0.1 µg/mL | 
CC(O)C1C(=O)N2C(C(=O)[O-])=C(S/C=C/C(N)=O)CC12.[Na+] (stereo not shown) [Example 5, Sodium 3-[E-2-carbamoylethenylthio]-6-[1-hydroxyethyl]-7-oxo-1-azabicyclo[3.2.0]hept-2-ene-2-carboxylate] | 1.6 µg/mL | 0.4 µg/mL | 0.4 µg/mL | 1.6 µg/mL | 6.2 µg/mL | > 100 µg/mL | 0.2 µg/mL | 3.1 µg/mL | 6.2 µg/mL | 0.8 µg/mL | 1.6 µg/mL | 1.6 µg/mL | 6.2 µg/mL | 1.6 µg/mL | 1.6 µg/mL | 6.2 µg/mL | 3.1 µg/mL | 50 µg/mL | 0.8 µg/mL | 0.2 µg/mL | MIC [2]: ≤ 0.1 µg/mL
CC(O)C1C(=O)N2C(C(=O)[O-])=C(S/C=C\C(N)=O)CC12.[Na+] (stereo not shown) [Example 6, Sodium 3-[Z-2-carbamoylethenylthio]-6-[1-hydroxyethyl]-7-oxo-1-azabicyclo[3.2.0]hept-2-ene-2-carboxylate] | 12.5 µg/mL | 3.1 µg/mL | 6.2 µg/mL | 6.2 µg/mL | 50 µg/mL | > 100 µg/mL | 1.6 µg/mL | 12.5 µg/mL | 25 µg/mL | 1.6 µg/mL | 25 µg/mL | 50 µg/mL | 50 µg/mL | 6.2 µg/mL | 3.1 µg/mL | 50 µg/mL | 50 µg/mL | 100 µg/mL | 12.5 µg/mL | 3.1 µg/mL | 
C[C@@H](OC=O)[C@H]1C(=O)N2C(C(=O)[O-])=C(S/C=C\C(=O)NCc3ccccc3)C[C@H]12.[Na+] [Example 3, Sodium (5R,6S)-3-[(Z)-2-benzylaminocarbonylethenylthio]-6-[(R)-1-formyloxyethyl]-7-oxo-1-azabicyclo[3.2.0]hept-2-ene-2-carboxylate] | 1.6 µg/mL | 0.4 µg/mL | 0.8 µg/mL | 0.4 µg/mL | 6.2 µg/mL | 50 µg/mL | ≤ 0.1 µg/mL | 3.1 µg/mL | 0.4 µg/mL | ≤ 0.1 µg/mL | 3.1 µg/mL | 3.1 µg/mL | 0.8 µg/mL | 0.4 µg/mL |  | 3.1 µg/mL | 1.6 µg/mL | 3.1 µg/mL | 0.4 µg/mL | 0.8 µg/mL | MIC [2]: 0.8 µg/mL
